Laboratory results published in EP0403242A1, “New L-683,590 microbial transformation product” (Merck & Co., Inc., priority 1989, dated 1990).
“And” between values parts separate entries of the source, which are not always exact repeats. Identical values can stand only once. Like-named read-outs stand apart in the source and are kept apart here.

What was measured:
mouse T lymphocytes = assay: T-cell proliferation assay (ionomycin plus PMA induced T-cell stimulation, tritiated thymidine uptake); assay type: cell-based, C57B1/6 mice
Procedure: The principle of this assay is to measure the proliferation of mouse T lymphocytes stimulated with the combination of ionomycin plus PMA. […] Cells were pelleted by centrifugation at 1500 rpm for 8 minutes. Contaminating red cells were removed by treating the pellet with ammonium chloride lysing buffer (GIBCO) for 2 minutes at 4°C. Cold medium was added and cells were again centrifuged at 1500 rpm for 8 minutes. T lymphocytes were then isolated by separation of the cell suspension on nylon wool columns as follows: Nylon wool columns were prepared by packing approximately 4 grams of washed and dried nylon wool into 20 ml plastic syringes. The columns were sterilized by autoclaving at 250°F for 30 minutes. Nylon wool columns were wetted with warm (37°C) culture medium and rinsed with the same medium. Washed spleen cells resuspended in warm medium were slowly applied to the nylon wool. The columns were then incubated in an upright position at 37°C for 1 hour. Non-adherent T lymphocytes were eluted from the columns with warm culture medium and the cell suspensions were spun as above. […] The cell suspension was immediately distributed into 96 well flat-bottom microculture plates (Costar) at 200 μl/well. […] The proliferation of T lymphocytes was assessed by measurement of tritiated thymidine incorporation. After 44 hours of culturing, the cells were pulse-labelled with 2 μCi/well of tritiated thymidine (NEN, Cambridge, MA). After another 4 hours of incubation, cultures were harvested on glass fiber filters using a multiple sample harvester. Radioactivity of filter discs corresponding to individual wells was measured by standard liquid scintillation counting methods (Betacounter). […]

[1] = Physical characteristics of the fermentation product; assay type: physicochemical; details: qualitative, solvent methanol
Source text: White amorphous powder • 2. […] Molecular weight of 763, as determined by electron impact mass spectroscopy and is consistent with the assigned molecular structure in Figure 1.

SMILES: C=CC[C@@H]1/C=C(\C)C[C@H](C)C[C@H](OC)[C@H]2O[C@@](O)(C(=O)C(=O)N3CCCC[C@H]3C(=O)O[C@H](/C(C)=C/[C@@H]3CC[C@@H](O)[C@H](OC)C3)[C@H](C)[C@@H](O)CC1=O)[C@H](C)C[C@@H]2OC [L-679,934, reference compound]
- inhibition at 0.001 µg/mL (mouse T lymphocytes; Mus musculus, T-lymphocyte, Table 1, L-679,934 1 ng/ml alone (0 ng/ml L-686,292)): 99%
- inhibition at 0.001 µg/mL (mouse T lymphocytes; Mus musculus, T-lymphocyte, Table 2, L-679,934 (1 ng/ml) alone (0 ng/ml L-686,292)): 97.1%
- IC50 (mouse T lymphocytes; Mus musculus, T-lymphocyte, read-out: IC₅₀ for L-679,934-mediated inhibition): 0.00032 µg/mL and 0.4 nM

SMILES: CC[C@@H]1/C=C(\C)C[C@H](C)C[C@H](O)[C@H]2O[C@@](O)(C(=O)C(=O)N3CCCC[C@H]3C(=O)O[C@H](/C(C)=C/[C@@H]3CC[C@@H](O)[C@H](O)C3)[C@H](C)[C@@H](O)CC1=O)[C@H](C)C[C@@H]2OC [L-686,292]
- Solubility [1]: Solubility in methanol
- inhibition at 0.031 µg/mL (mouse T lymphocytes; Mus musculus, T-lymphocyte, 48 h, Table 1, L-686,292 only, 31 ng/ml, harvest at 48 hours): 0%
- inhibition at 0.063 µg/mL (mouse T lymphocytes; Mus musculus, T-lymphocyte, 48 h, Table 1, L-686,292 only, 63 ng/ml, harvest at 48 hours): 0%
- inhibition at 0.125 µg/mL (mouse T lymphocytes; Mus musculus, T-lymphocyte, 48 h, Table 1, L-686,292 only, 125 ng/ml, harvest at 48 hours): 0%
- inhibition at 0.25 µg/mL (mouse T lymphocytes; Mus musculus, T-lymphocyte, 48 h, Table 1, L-686,292 only, 250 ng/ml, harvest at 48 hours): 0%
- inhibition at 0.5 µg/mL (mouse T lymphocytes; Mus musculus, T-lymphocyte, 48 h, Table 1, L-686,292 only, 500 ng/ml, harvest at 48 hours): 0%
- inhibition at 1 µg/mL (mouse T lymphocytes; Mus musculus, T-lymphocyte, 48 h, Table 1, L-686,292 only, 1000 ng/ml, harvest at 48 hours): 0%
- inhibition at 0.001 µg/mL (mouse T lymphocytes; Mus musculus, T-lymphocyte, Table 1, L-686,292 31 ng/ml & L-679,934 (1 ng/ml), read-out: % Inhibition): 99%
- inhibition at 0.001 µg/mL (mouse T lymphocytes; Mus musculus, T-lymphocyte, Table 1, L-686,292 63 ng/ml & L-679,934 (1 ng/ml), read-out: % Inhibition): 99%
- inhibition at 0.001 µg/mL (mouse T lymphocytes; Mus musculus, T-lymphocyte, Table 1, L-686,292 125 ng/ml & L-679,934 (1 ng/ml), read-out: % Inhibition): 96%
- inhibition at 0.001 µg/mL (mouse T lymphocytes; Mus musculus, T-lymphocyte, Table 1, L-686,292 250 ng/ml & L-679,934 (1 ng/ml), read-out: % Inhibition): 65%
- inhibition at 0.001 µg/mL (mouse T lymphocytes; Mus musculus, T-lymphocyte, Table 1, L-686,292 500 ng/ml & L-679,934 (1 ng/ml), read-out: % Inhibition): 3%
- inhibition at 0.001 µg/mL (mouse T lymphocytes; Mus musculus, T-lymphocyte, Table 1, L-686,292 1000 ng/ml & L-679,934 (1 ng/ml), read-out: % Inhibition): 0%
- inhibition at 0.001 µg/mL (mouse T lymphocytes; Mus musculus, T-lymphocyte, Table 2, L-686,292 31.3 ng/ml + inhibitor L-679,934 (1 ng/ml), read-out: % Inhibition): 93.4%
- inhibition at 0.001 µg/mL (mouse T lymphocytes; Mus musculus, T-lymphocyte, Table 2, L-686,292 62.5 ng/ml + inhibitor L-679,934 (1 ng/ml), read-out: % Inhibition): 65.7%
- inhibition at 0.001 µg/mL (mouse T lymphocytes; Mus musculus, T-lymphocyte, Table 2, L-686,292 125 ng/ml + inhibitor L-679,934 (1 ng/ml), read-out: % Inhibition): 0%
- inhibition at 0.001 µg/mL (mouse T lymphocytes; Mus musculus, T-lymphocyte, Table 2, L-686,292 1000 ng/ml + inhibitor L-679,934 (1 ng/ml), read-out: % Inhibition): 4.7%
- IC50 (mouse T lymphocytes; Mus musculus, T-lymphocyte, reversal of inhibition by L-679,934 (1 ng/ml), read-out: IC₅₀ of reversal): 0.25 µg/mL and 328 nM
- IC50 (mouse T lymphocytes; Mus musculus, T-lymphocyte, reversal of inhibition by L-679,934, 'generally in the range', read-out: IC₅₀ of reversal, general range): 100 to 400 nM
- L-679,934 antagonist activity (mouse T lymphocytes; qualitative statement): exhibits reversal of L-679,934 mediated inhibition of T-cell activation
